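Values below derive from 48-hour exposures of cells grown in 96-well plates, with endpoints linearly interpolated between the two concentrations bracketing the appropriate inhibition level. GI50 = concentration required for 50% inhibition of growth.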 Active and inactive are the calls of the source. Rule as the data show it: active = GI50 up to about 1.1 µM and inactive = higher.
Experiments:
Experiment in all cases: NCI anticancer screen, dose series, 48 h
[1] = system: 786-0
[2] = system: ACHN
[3] = system: CAKI-1
[4] = system: CCRF-CEM
[5] = system: COLO 205
[6] = system: DU-145
[7] = system: EKVX
[8] = system: HCC 2998
[9] = system: HCT-116
[10] = system: HCT-15
[11] = system: HL-60
[12] = system: HOP-62
[13] = system: HOP-92
[14] = system: HT-29
[15] = system: Hs-578T
[16] = system: IGROV-1
[17] = system: K562
[18] = system: KM12
[19] = system: LOX IMVI
[20] = system: M14
[21] = system: MCF7
[22] = system: MDA-MB-231
[23] = system: MDA-MB-435
[24] = system: MDA-N
[25] = system: MOLT-4
[26] = system: Malme-3M
[27] = system: NCI-H226
[28] = system: NCI-H23
[29] = system: NCI-H460
[30] = system: NCI-H522
[31] = system: NCI/ADR-RES
[32] = system: OVCAR-3
[33] = system: OVCAR-4
[34] = system: OVCAR-5
[35] = system: OVCAR-8
[36] = system: PC-3
[37] = system: RPMI-8226
[38] = system: RXF 393
[39] = system: SF-268
[40] = system: SF-295
[41] = system: SF-539
[42] = system: SK-MEL-28
[43] = system: SK-MEL-5
[44] = system: SK-OV-3
[45] = system: SN12C
[46] = system: SNB-19
[47] = system: SR
[48] = system: SW-620
[49] = system: T47D
[50] = system: TK-10
[51] = system: U-251
[52] = system: UACC-257
[53] = system: UACC-62

## C[C@@H]([C@H]1CC[C@@]2(C)[C@@H]3CC[C@@H]4C(=CC3=CC[C@]12C)CC[C@H](N(C)C)C4(C)C)N(C)C [BUXAMINE A]
[1]
  GI50: > 100 µM (inactive)
[2]
  GI50: > 100 µM (inactive)
[3]
  GI50: > 100 µM (inactive)
[4]
  GI50: > 100 µM (inactive)
[5]
  GI50: > 100 µM (inactive)
[6]
  GI50: > 100 µM (inactive)
[7]
  GI50: > 100 µM (inactive)
[8]
  GI50: > 100 µM (inactive)
[9]
  GI50: > 100 µM (inactive)
[10]
  GI50: > 100 µM
[11]
  GI50: > 100 µM (inactive)
[12]
  GI50: > 100 µM (inactive)
[13]
  GI50: > 100 µM (inactive)
[14]
  GI50: > 100 µM (inactive)
[15]
  GI50: > 100 µM (inactive)
[16]
  GI50: > 100 µM (inactive)
[17]
  GI50: > 100 µM (inactive)
[18]
  GI50: > 100 µM (inactive)
[19]
  GI50: > 100 µM (inactive)
[20]
  GI50: > 100 µM (inactive)
[21]
  GI50: > 100 µM (inactive)
[22]
  GI50: > 100 µM (inactive)
[23]
  GI50: > 100 µM (inactive)
[24]
  GI50: > 100 µM (inactive)
[25]
  GI50: > 100 µM (inactive)
[26]
  GI50: > 100 µM (inactive)
[27]
  GI50: > 100 µM (inactive)
[28]
  GI50: > 100 µM (inactive)
[29]
  GI50: > 100 µM (inactive)
[30]
  GI50: > 100 µM (inactive)
[31]
  GI50: > 100 µM (inactive)
[32]
  GI50: > 100 µM (inactive)
[33]
  GI50: > 100 µM (inactive)
[34]
  GI50: > 100 µM (inactive)
[35]
  GI50: > 100 µM (inactive)
[36]
  GI50: > 100 µM (inactive)
[37]
  GI50: > 100 µM (inactive)
[38]
  GI50: > 100 µM (inactive)
[39]
  GI50: > 100 µM (inactive)
[40]
  GI50: > 100 µM (inactive)
[41]
  GI50: > 100 µM (inactive)
[42]
  GI50: > 100 µM (inactive)
[43]
  GI50: > 100 µM (inactive)
[44]
  GI50: > 100 µM (inactive)
[45]
  GI50: > 100 µM (inactive)
[46]
  GI50: > 100 µM (inactive)
[47]
  GI50: > 100 µM (inactive)
[48]
  GI50: > 100 µM (inactive)
[49]
  GI50: > 100 µM (inactive)
[50]
  GI50: > 100 µM (inactive)
[51]
  GI50: > 100 µM (inactive)
[52]
  GI50: > 100 µM (inactive)
[53]
  GI50: > 100 µM (inactive)

— ChEMBL document CHEMBL1201862, “PubChem BioAssay data set” (2004)
